In brackets after ≈: the same amount, converted by molar mass.
Tests used:
[1] = Solubility of Compound 1 in aqueous 2-hydroxypropyl-β-cyclodextrin solutions (HPLC); format: physicochemical; conditions: aqueous 2-hydroxypropyl-β-cyclodextrin solution, thermodynamic from solid, stirred 72 hours
Protocol: 0.4 g of 1-(4-t-butylbenzyl)-3-(3-fluoro-4-methanesulfonylaminobenzyl)thiourea (Compound 1) was added to each 10 ml of 0, 1.5, 3.5, 7.0, 14.0 and 28.0 w/v % aqueous solutions of 2-hydroxypropyl-β-cyclodextrin. The resulting mixture was stirred for 72 hours, filtered through a 0.2 micrometer filter paper. The concentration of Compound 1 in the filtrate was determined by high performance liquid chromatography (HPLC) and the solubility of Compound 1 depending on the concentration of 2-hydroxypropyl-β-cyclodextrin is presented in Table 1.

[2] = Solubility of Compound 1 in 2-hydroxypropyl-β-cyclodextrin solution in glycine buffer (pH 10.5) (HPLC); format: physicochemical; conditions: thermodynamic from solid, stirred 72 hours
Protocol: 0.4 g of 1-(4-t-butylbenzyl)-3-(3-fluoro-4-methanesulfonylaminobenzyl)thiourea (Compound 1) was added to each 10 ml of 0, 1.5, 3.5, 7.0, 14.0 and 28.0 w/v % 2-hydroxypropyl-β-cyclodextrin solution in glycine buffer (pH 10.5). The resulting mixture was stirred for 72 hours, filtered through a 0.2 micrometer filter paper.
The concentration of Compound 1 in the filtrate was determined by high performance liquid chromatography (HPLC) and the solubility of Compound 1 depending on the concentration of 2-hylroxypropyl-β-cyclodextrin is presented in Table 2.

[3] = Solubility of Compound 1 in 95% ethanol solution containing 2-hydroxypropyl-β-cyclodextrin (HPLC); format: physicochemical; conditions: organic solvent or mixture, thermodynamic from solid, stirred 72 hours
Protocol: 5 g of 1-(4-t-butylbenzyl)-3-(3-fluoro-4-methanesulfonylaminobenzyl)thiourea (Compound 1) was added to 100 ml of 95% ethanol solution containing 0, 1.0, 2.0, 5.0, 10.0 or 20.0 w/v % of 2-hylroxypropyl-β-cyclodextrin, and the mixture was stirred for 72 hours and then filtered through a 0.2 micrometer filter paper. The concentration of Compound 1 in the filtrate was determined by high performance liquid chromatography (HPLC) and the solubility of Compound 1 depending on the concentration of 2-hydroxypropyl-β-cyclodextrin is presented in Table 4.

[4] = Comparative dissolution test (Paddle method, Korean pharmacopoeia); format: physicochemical; conditions: water as release solvent, 37° C., 50 rpm, FIG. 1
Protocol: 1-(4-t-butylbenzyl)-3-(3-fluoro-4-methanesulfonylaminobenzyl)thiourea (Compound 1) and the tablet prepared in Formulation Example 2 were subjected to test in accordance with dissolution test method II (Paddle method) described in Korean pharmacopoeia using water as a release solvent.
3 ml samples were taken at a given time interval under the condition of 37° C. and 50 rpm, and filtered through a 0.45 micrometer filter. The concentration of Compound 1 in each sample was determined by HPLC.

[5] = Test for pharmacokinetics after oral administration to rats; format: in vivo; conditions: orally administered, 10 mg/kg
Description: 1-(4-t-Butylbenzyl)-3-(3-fluoro-4-methanesulfonylaminobenzyl)thiourea (Compound 1) and the liquid formulation prepared in Formulation Example 3 were each orally administered to rats, and the changes in the plasma drug concentration were monitored according to a set time schedule. Each experimental animal group consisted of four male rats. After the rats were anesthetized with ether and operated for inserting a PE-50 polyethylene tube into the femoral artery, the suspension of Compound 1 in 0.5% sodium carboxymethylcellulose solution and the liquid formulation of Formulation Example 3 were each orally administered to the rats. At 15, 30, 60, 120, 210, 300 and 480 minutes after the administration, 150 micro liter blood samples were taken from the rats. Each blood sample was centrifuged to separate plasma, which was then subjected to HPLC to determine the concentration of Compound 1 in plasma.

`CC(C)(C)c1ccc(CNC(=S)NCc2ccc(NS(C)(=O)=O)c(F)c2)cc1` [Compound 1, 1-(4-t-butylbenzyl)-3-(3-fluoro-4-methanesulfonylaminobenzyl)thiourea] showed a solubility at 72 h ([1]; aqueous with cosolvent or surfactant or cyclodextrin, 1.5 w/v % 2-hydroxypropyl-β-cyclodextrin) of 0.4 mg/mL (≈ 0.944 mM), a solubility at 72 h ([1]; aqueous with cosolvent or surfactant or cyclodextrin, 3.5 w/v % 2-hydroxypropyl-β-cyclodextrin) of 1.04 mg/mL (≈ 2.46 mM) and a solubility at 72 h ([1]; aqueous with cosolvent or surfactant or cyclodextrin, 7.0 w/v % 2-hydroxypropyl-β-cyclodextrin) of 4.18 mg/mL (≈ 9.87 mM). For the same molecule, the solubility at 72 h ([1]; aqueous with cosolvent or surfactant or cyclodextrin, 14.0 w/v % 2-hydroxypropyl-β-cyclodextrin) was 12.2 mg/mL (≈ 28.9 mM), the solubility at 72 h ([1]; aqueous with cosolvent or surfactant or cyclodextrin, 28.0 w/v % 2-hydroxypropyl-β-cyclodextrin) was 29 mg/mL (≈ 68.4 mM) and the solubility at 72 h ([1]; water, 0 w/v % 2-hydroxypropyl-β-cyclodextrin) was 0.01 mg/mL (≈ 0.0236 mM). It also gave a solubility at 72 h ([2]; pH 10.5, aqueous buffer, 0 w/v % 2-hydroxypropyl-β-cyclodextrin) of 0.05 mg/mL (≈ 0.118 mM), a solubility at 72 h ([2]; pH 10.5, aqueous with cosolvent or surfactant or cyclodextrin, 1.5 w/v % 2-hydroxypropyl-β-cyclodextrin) of 2.7 mg/mL (≈ 6.37 mM) and a solubility at 72 h ([2]; pH 10.5, aqueous with cosolvent or surfactant or cyclodextrin, 3.5 w/v % 2-hydroxypropyl-β-cyclodextrin) of 4.8 mg/mL (≈ 11.3 mM). For the same molecule, the solubility at 72 h ([2]; pH 10.5, aqueous with cosolvent or surfactant or cyclodextrin, 7.0 w/v % 2-hydroxypropyl-β-cyclodextrin) was 9.62 mg/mL (≈ 22.7 mM), the solubility at 72 h ([2]; pH 10.5, aqueous with cosolvent or surfactant or cyclodextrin, 14.0 w/v % 2-hydroxypropyl-β-cyclodextrin) was 18 mg/mL (≈ 42.5 mM) and the solubility at 72 h ([2]; pH 10.5, aqueous with cosolvent or surfactant or cyclodextrin, 28.0 w/v % 2-hydroxypropyl-β-cyclodextrin) was 32.5 mg/mL (≈ 76.7 mM). For the same molecule, the solubility at 72 h ([3]; 0 w/v % 2-hydroxypropyl-β-cyclodextrin) was 19.7 mg/mL (≈ 46.6 mM), the solubility at 72 h ([3]; 1.0 w/v % 2-hydroxypropyl-β-cyclodextrin) was 21.2 mg/mL (≈ 50.1 mM) and the solubility at 72 h ([3]; 2.0 w/v % 2-hydroxypropyl-β-cyclodextrin) was 22.7 mg/mL (≈ 53.5 mM). It also gave a solubility at 72 h ([3]; 5.0 w/v % 2-hydroxypropyl-β-cyclodextrin) of 27.2 mg/mL (≈ 64.3 mM), a solubility at 72 h ([3]; 10.0 w/v % 2-hydroxypropyl-β-cyclodextrin) of 34.1 mg/mL (≈ 80.6 mM) and a solubility at 72 h ([3]; 20.0 w/v % 2-hydroxypropyl-β-cyclodextrin) of 43.5 mg/mL (≈ 103 mM). For the same molecule, the “percent dissolution of drug” value [4] was “insoluble in water”, the bioavailability ([5]; male, rat, plasma, po, read-out: BA: Bioavailability) was 16.5% and the Cmax ([5]; male, rat, plasma, po, read-out: Cmax: Maximum plasma concentration) was 670 ng/mL. For the same molecule, the Tmax ([5]; male, rat, plasma, po, read-out: Tmax: Time at the maximum plasma concentration) was 30 min and the “AUC: Area under the plasma concentration vs. time curve till 24 hours” value [5] was 2.79 microgram · h/ml.
